Laboratory results: article PMC6696947 (European journal of pharmacology, 2019)
“Also recorded” adds a separate entry of the source.

How the values were obtained:
[1] = tested on: rats; settings: positive control; ref Carlezon et al., 2006; Curzon et al., 2009; cited from earlier work
[2] = tested on: rats; test: Self-administration model; type: in vivo, male Sprague-Dawley rats; settings: n=8
[3] = tested on: rats; test: Hot plate model; type: in vivo, male Sprague-Dawley rats; settings: JT07/JT09 20 mg/kg p.o.; morphine 10 mg/kg i.p.; %MPE, 53.0 °C, cut-off 30 s
[4] = tested on: rats; test: Acetic acid-induced writhing model; type: in vivo, male Sprague-Dawley rats; settings: test compound 20 mg/kg p.o.; morphine 10 mg/kg i.p.; Student's t-test, P<0.05
[5] = tested on: rats; test: Locomotor open field test; settings: JT09 20 mg/kg p.o.; morphine 10 mg/kg i.p.
[6] = no reference given, cited from earlier work
[7] = no reference given; cited from earlier work
[8] = no reference given, cited from earlier work; remark: listed apart in the source

COC(=O)[C@@H]1C[C@H](OC(C)=O)C(=O)[C@H]2[C@@]1(C)CC[C@H]1C(=O)O[C@H](c3ccoc3)C[C@]21C [Salvinorin A]
depressant-like effects (in words) [1]: known depressant-like effects at high dose levels, such as dysphoria

COC(=O)[C@H]1[C@@H](OC(=O)c2ccccc2)C[C@@H]2CC[C@H]1N2C [cocaine]
number of cocaine infusions / active lever presses over 7 days ([2]; cocaine 50ug/50ul bolus after JT09, nose poke, F(6,42)=4.6, P<0.0012): number of cocaine infusions increased over the 7 days; also recorded: number of cocaine active lever presses increased over the 7 days; also recorded: expected increase in the number of lever presses over the seven-day period | cocaine infusions / active lever presses on days 6 and 7 ([2]; cocaine after JT09, Dunnett post hoc, P<0.05): significantly more infusion on days 6 and 7; also recorded: significantly more active lever presses on days 6 and 7

CN1CC[C@]23c4c5ccc(O)c4O[C@H]2[C@@H](O)C=C[C@H]3[C@H]1C5 [morphine]
analgesic activity in hot plate model [3]: potent analgesic | potency/efficacy versus morphine in writhing (peripheral pain) [4]: comparable analgesic activity | sedation (in words) [5]: highly sedative

D-Phe-D-Phe-D-Nle-D-Arg-NH2 [CR665]
peripheral to central selectivity in analgesic models (in words) ([6]; i.v., background statement in abstract): high peripheral to central selectivity | peripheral-selectivity ([6]; peripheral versus central): 548 fold | efficacy in visceral and neuropathic pain (in words) [7]: has demonstrated efficacy in the treatment of visceral and neuropathic pain without the negative side-effects of centrally acting KOAs | oral activity (in words) ([8]; background statement in abstract): inactive when administered orally | oral bioavailability (in words) [8]: does not have significant oral bioavailability
